Data as given in patent publication US10918891B2, “Cosmetic treatment method for the skin” (SYNTIVIA, priority 2016, dated 2021).
Marks after values point to notes of the source that are not given here.

Assays:
[1] = tested on: explants of human skin (NATIVESKIN, Genoskin); test: γ-H2Ax immunofluorescence (DNA double-strand breaks) on human skin explants after repeated UVA irradiation; type: cell-based; settings: skin explant, topical (Ia) 100 ppm in Carbopol, three UVA stresses 50 J/cm2
Protocol: (§1) In these examples, the protective properties of the compound (Ia) against the damage caused to the DNA and to the extracellular matrix by repeated UVA irradiation, are measured on explants of human skin (NATIVESKIN, Genoskin).
(§2) Upon reception of the explants, the latter are topically coated with Carbopol® (Lubrizol)+DMSO for the non-UVA control (CTL without stress) and for the control with stress by UVAs (CTL UVA), and with Carbopol®+compound (Ia) at 100 ppm for the test.
(§3) Over three days, the cells are subjected to three stresses with UVAs at a rate of 50 joules per square centimetre.
(§4) The first irradiation takes place 24 hours after the treatments. The products are present before, during and after the irradiation. The control without stress is wrapped in aluminium and also placed in the irradiator.
During the irradiation, the explants inserted are disposed in a petri dish with PBS. Fresh medium (Genoskin Culture medium) is added after the irradiation. […]
The sections are mounted on a slide, and observed using a microscope (Leica DM5000B). An absence of fluorescence is clearly observed for the sample treated with the compound (Ia) according to the invention, which corresponds to an absence of double-strand breaks of the DNA.
The fluorescence is quantified by means of the microscope.

[2] = tested on: explants of human skin (NATIVESKIN, Genoskin); test: Morphological study (haematoxylin and eosin) of human skin explants after repeated UVA irradiation; type: cell-based; settings: skin explant; topical (Ia) 100 ppm; three UVA stresses 50 J/cm2; FIG. 3
Protocol: as §1, §2, §3, §4
During the irradiation, the explants inserted are disposed in a petri dish with PBS. Fresh medium (Genoskin Culture medium) is added after the irradiation.
After the third day of irradiation, the explants are cultivated for 24 hours, then collected and fixed for 48 hours in formalin (Sigma). The samples are included in paraffin and cut.
A morphological study of the skin is implemented.
The samples of explant are deparaffined, rehydrated and then they are subjected to colouration with haematoxylin and with eosin in order to observe the in-depth effect of the compound (Ia) on the skin. […]

Sirtuin-6 = test: Gene expression of Sirtuin-6 by real-time quantitative PCR in NHDF; type: cell-based, human
Protocol: The cells used for this example are normal human Fibroblasts (NHDF) The cells are inoculated in 96-well plates at a concentration of 10000 cells per well.
The contact with the compound tested is carried out for 24 h. After the 24 h contact, the supernatant is eliminated and the cells are collected in a lysis solution in order to extract the mRNA. The mRNA is reverse transcribed into DNA then quantified by real-time quantitative PCR.

NHDF cells = test: DNA double-strand breaks (γ-H2AX) induced by cigarette extract in NHDF; type: cell-based, human; settings: (Ia) 10 ppm pretreatment 24 h and treatment 24 h, cigarette extract 1/50, Control 6441, Cigarette extract 11404
Protocol: (§5) The cells used for this example are normal human Fibroblasts (NHDF) and normal human epidermal Keratinocytes (NHEK).
(§6) The cells are cultured at the concentration of 3000 cells per well of 96-well plates in the presence of standard culture medium for NHDF or NHEK (for 24 hours, 37° C., 5% CO2).
(§7) After pretreatment of the cells with the compound (Ia) at 10 ppm for 24 hours, the cells are treated with the cigarette extract diluted to 1/50° with or without compound (Ia) at 10 ppm for 24 hours. […].
(§8) After washing, the samples are then placed in the presence of DAPI for 10 min in order to mark the nuclei, then rinsed once again. The marked proteins are observed and quantified with an automated fluorescence microscope (ArrayScan® (Cellomics®)). The cells treated by the compound (Ia) are then compared to the untreated cells or to the cells only exposed to the cigarette extract.

NHEK cells = test: DNA double-strand breaks (γ-H2AX) induced by cigarette extract in NHEK; type: cell-based, human; settings: (Ia) 10 ppm pretreatment 24 h and treatment 24 h, cigarette extract 1/50, Control 10346, Cigarette extract 13269
Protocol: as §5, §6, §7, §8

[3] = tested on: NativeSkin® skin explants (Genoskin); test: Histological analysis (haematoxylin/eosin) of NativeSkin skin explant ex vivo after UVA irradiation; type: cell-based, human; settings: composition 0.9 mmol/L topical, 60 J/cm^2 UVA every day for 3 days, FIG. 5
Protocol: The test was carried out on NativeSkin® skin explants (Genoskin), a biopsy of skin bathed in a solid, nourishing matrix while its epidermal surface is preserved in contact with the air. The biopsy is firmly anchored in the matrix and sealed in order to prevent any lateral diffusion of formulation intended for topical application.
The study was carried out on a donor (phototype 2) under the following conditions.
The compounds tested are implemented in a composition containing them at 0.9 mmol/L in a mixture of Carbopol® (0.5% p/p), DMSO (0.1% p/p) and H2O (qsp 100%).
The samples are irradiated at 60 J/cm^2 UVA every day for 3 days. A treatment is carried out for 24 h before the irradiation, by application of the composition tested onto the sample (deposition of 40 μl of composition onto the stratum corneum), then a post-treatment of 24 h after the irradiation, in the same manner.
A Control of the sample of skin non-irradiated and a Control of the sample of skin irradiated are also carried out, both with application of the vehicle alone (0.5% Carbopol®, 0.1% DMSO, H2O). The Control of the non-irradiated sample of skin is introduced into the irradiator in a sheet of aluminium, in such a way as to protect it against UVs.
The samples are sampled, cut (according to the conventional method of cryo-sectioning implementing paraffin and freezing) and fixed in 1 ml of formalin for 24 h.
The explants are then included in paraffin and sections of 5 μm are made.
The slides are then coloured with haematoxylin (basic compound marking the nuclei) and eosin (acidic compound marking the conjunctive tissue).
The analysis of the marking is carried out with a DM5000B fluorescence microscope (Leica Microsystems) and 10 images are acquired for each sample.

## Cc1ncc(CO)c(CNC(=O)/C=C/c2ccc(O)c(O)c2)c1O [Compound (Ia)]
[1]
  Cells positive for γ-H2Ax marking / total number of cells: 59/1282
[1]; CTL UVA 33.93%, CTL without stress 4.34%
  Cells positive for γ-H2Ax marking based on 100%: 4.76%
[2]
  Morphology of the skin (epidermal barrier, structure of the dermis) after UVA: the epidermal barrier is preserved from the degradation by the UVAs and the structure of the dermis is preserved
Sirtuin-6; 24 h contact
  Gene expression of the sirtuin-6 compared to the basal level based on 100%: 166%
Sirtuin-6; see Example 13
  stimulation of the expression of the gene of the Sirtuin-6 with respect to the untreated control: 66%
NHDF cells
  Double-strand breaks of the DNA for NHDF (AU): 8752*** AU
NHEK cells
  Double-strand breaks of the DNA for NHEK (AU): 11193* AU
[3]
  Morphology of the epidermis after UVA irradiation (histological analysis): totally protected
